Experimental data taken from patent publication US8287887B2, “Antigen-and-drug vehicle comprising synthetic peptide, and mucosal vaccine using the same” (priority 2008, dated 2012).

Columns and labels:
[1] = test system: influenza virus A strain New Calcdonia (H1N1); set-up: species or system Clawn minipigs; settings: minipig, in vivo
[2] = test system: influenza A virus strain Aichi/68/2/H3N2; test: Nasal vaccination of mice; anti-influenza IgA and IgG in nasal cavity lavage fluids and blood serum by ELISA; format: in vivo, BALB/c mice; settings: compared with HA vaccine alone or with other AD vehicles

KKKKKKLLLLLLLLLLLLLLLL [K6L16, six K residues on the N-terminal side and 16 L residues on the C-terminal side]
Effectiveness of AD vehicle in inducing antibody titers, in words [1]: effective

PVHLKRLLLLLLLLLLL [SP-CL11]
Effectiveness of AD vehicle in inducing antibody titers, in words [1]: effective

PVHLRKLLLLLLLLLLLLLLLL (PVHLKRLLLLLLLLLLLLLLLL) [RK-SP-CL, comparison peptide; KR of the 5th-6th positions of SP-CL11 reversed to RK, more L residues]
Antibody-production-enhancing effect (IgA and/or IgG), in words [2]: not much involved in the antibody production
